Reference: ChEMBL document CHEMBL5131475, “Metallo-β-lactamases inhibitor fisetin attenuates meropenem resistance in NDM-1-producing Escherichia coli” (Eur J Med Chem, 2022)
Converted amounts (≈) assume the structure as drawn.

Key:
Format in all cases: functional
Details in all cases: time 18-24 hrs
Escherichia coli [1] = assay: Antibacterial activity against pET28a-NDM-1 positive Escherichia coli BL21(DE3) isolates assessed as inhibition of bacterial growth incubated for 18 to 24 hrs by CLSI based broth microdilution method
Escherichia coli [2] = assay: Antibacterial activity against NDM-1 positive Escherichia coli ZC-YN3 isolates assessed as inhibition of bacterial growth incubated for 18 to 24 hrs by CLSI based broth microdilution method
Escherichia coli [3] = assay: Antibacterial activity against NDM-1 negative Escherichia coli BL21(DE3) pET28a isolates assessed as inhibition of bacterial growth incubated for 18 to 24 hrs by CLSI based broth microdilution method
Escherichia coli [4] = assay: Antibacterial activity against NDM-1 positive MCR1 carrying Escherichia coli ZJ487 isolates assessed as inhibition of bacterial growth incubated for 18 to 24 hrs by CLSI based broth microdilution method
Escherichia coli [5] = assay: Antibacterial activity against NDM-1 negative Escherichia coli ATCC25922 isolates assessed as inhibition of bacterial growth incubated for 18 to 24 hrs by CLSI based broth microdilution method

Compound | MIC (Escherichia coli [1]) [µg/mL] | MIC (Escherichia coli [2]) [µg/mL] | MIC (Escherichia coli [3]) [µg/mL] | MIC (Escherichia coli [4]) [µg/mL] | MIC (Escherichia coli [5]) [µg/mL]
CC1(C)S[C@@H]2[C@H](NC(=O)[C@H](N)c3ccccc3)C(=O)N2[C@H]1C(=O)O [AMPICILLIN] | 853 (≈ 2440 µM) | 853 (≈ 2440 µM) |  |  | 
CS(=O)(=O)c1ccc([C@@H](O)[C@@H](CF)NC(=O)C(Cl)Cl)cc1 [FLORFENICOL] | 1020 (≈ 2850 µM) | 427 (≈ 1190 µM) |  |  | 
CCC[C@@H]1C[C@@H](C(=O)N[C@@H]([C@H]2O[C@H](SC)[C@H](O)[C@@H](O)[C@H]2O)[C@@H](C)O)N(C)C1 [LINCOMYCIN] | 1020 (≈ 2510 µM) | 1020 (≈ 2510 µM) |  |  | 
C[C@@H](O)[C@H]1C(=O)N2C(C(=O)O)=C(S[C@@H]3CN[C@H](C(=O)N(C)C)C3)[C@H](C)[C@H]12 [MEROPENEM] | 37.3 (≈ 97.3 µM) | 16 (≈ 41.7 µM) | 0.01 (≈ 0.0261 µM) | 21.3 (≈ 55.5 µM) | 0.01 (≈ 0.0261 µM)
CO[C@H]1/C=C/O[C@@]2(C)Oc3c(C)c(O)c4c(O)c(c(/C=N/N5CCN(C)CC5)c(O)c4c3C2=O)NC(=O)/C(C)=C\C=C\[C@H](C)[C@H](O)[C@@H](C)[C@@H](O)[C@@H](C)[C@H](OC(C)=O)[C@@H]1C [RIFAMPIN] | 1020 (≈ 1240 µM) | 13.3 (≈ 16.2 µM) |  |  | 
CN[C@@H]1[C@H](O)[C@H](NC)[C@H]2O[C@@]3(O)C(=O)C[C@@H](C)O[C@H]3O[C@@H]2[C@H]1O [SPECTINOMYCIN] | 512 (≈ 1540 µM) | 853 (≈ 2570 µM) |  |  | 
CN(C)[C@@H]1C(O)=C(C(N)=O)C(=O)[C@@]2(O)C(O)=C3C(=O)c4c(O)cccc4[C@@](C)(O)[C@H]3C[C@@H]12 [TETRACYCLINE] | 512 (≈ 1150 µM) | 128 (≈ 288 µM) |  |  | 
CN[C@H](CC(C)C)C(=O)N[C@H]1C(=O)N[C@@H](CC(N)=O)C(=O)N[C@H]2C(=O)N[C@H]3C(=O)N[C@H](C(=O)N[C@H](C(=O)O)c4cc(O)cc(O)c4-c4cc3ccc4O)[C@H](O)c3ccc(c(Cl)c3)Oc3cc2cc(c3O[C@@H]2O[C@H](CO)[C@@H](O)[C@H](O)[C@H]2O[C@H]2C[C@](C)(N)[C@H](O)[C@H](C)O2)Oc2ccc(cc2Cl)[C@H]1O [VANCOMYCIN] | 683 (≈ 471 µM) | 512 (≈ 353 µM) |  |  | 

Further compounds by falling MIC (Escherichia coli [1]), results first:

MIC (Escherichia coli [1]) [µg/mL] | MIC (Escherichia coli [2]) [µg/mL] | Compound | MIC (Escherichia coli [3]) [µg/mL] | MIC (Escherichia coli [4]) [µg/mL] | MIC (Escherichia coli [5]) [µg/mL]
512 (≈ 1120 µM) | 512 (≈ 1120 µM) | CO/N=C(\C(=O)N[C@@H]1C(=O)N2C(C(=O)O)=C(COC(C)=O)CS[C@H]12)c1csc(N)n1 [CEFOTAXIME] |  |  | 
512 (≈ 1060 µM) | 853 (≈ 1760 µM) | NC[C@H]1O[C@H](O[C@H]2[C@H](O)[C@@H](O[C@H]3O[C@H](CO)[C@@H](O)[C@H](N)[C@H]3O)[C@H](N)C[C@@H]2N)[C@H](O)[C@@H](O)[C@@H]1O [KANAMYCIN] |  |  | 
128 | 64 | C[C@H]1c2cccc(O)c2C(=O)C2=C(O)[C@]3(O)C(=O)C(C(N)=O)=C(O)[C@@H](N(C)C)[C@@H]3[C@@H](O)[C@@H]21.O [DOXYCYCLINE] |  |  | 
53.3 (≈ 91.6 µM) | 256 (≈ 440 µM) | CN[C@@H]1[C@H](O[C@H]2[C@H](O[C@H]3[C@H](O)[C@@H](O)[C@H](N=C(N)N)[C@@H](O)[C@@H]3N=C(N)N)O[C@@H](C)[C@]2(O)C=O)O[C@@H](CO)[C@H](O)[C@H]1O [STREPTOMYCIN] |  |  | 
26.7 (≈ 89.2 µM) | 26.7 (≈ 89.2 µM) | C[C@@H](O)[C@H]1C(=O)N2C(C(=O)O)=C(SCCNC=N)C[C@H]12 [IMIPENEM ANHYDROUS] |  |  | 
1.67 | 1.33 | COLISTIN |  |  | 
